# Like-named read-outs stand apart in the source and are kept apart here.
# Key:
# E. coli Juhl [1] = test: In vivo activity in experimental infection in mice, E. coli Juhl; settings: single; for Survival/Tested: 100×LD50 challenge; for ED50: Escherichia coli, sc, dose required to protect 50% of the infected mice, read-out: PD50
# Method: (§1) BB-P598 was evaluated in vivo in experimental infections in mice. The pathogenic bacteria employed were P. aeruginosa A9843, E. coli Juhl and S. aureus Smith. Mice were challenged intraperitoneally with a 100×LD50 dose of the pathogens in a 5% suspension of hog gastric mucin. The penicillin was administered subcutaneously as a single treatment, just after the bacterial challenge.
# (§2) PD50 = Protective Dose50 , i.e. the dose required to give
# (§3) protection to 50% of the infected mice.
# E. coli Juhl [2] = test: MIC of the infecting strain with the in vivo test, E. coli Juhl; assay type: cell-based; settings: Escherichia coli, Table 7
# P. aeruginosa A9843 [3] = test: MIC of the infecting strain with the in vivo test, P. aeruginosa A9843; assay type: cell-based; settings: Pseudomonas aeruginosa, Table 7
# Pseudomonas = test: Agar dilution, activity against Pseudomonas strains; assay type: cell-based
# Method: (§4) The Minimum Inhibitory Concentrations (MIC) for sodium 6-[D-(-)-α-phenyl-α-(7-hydroxy-4-oxo-4H-pyrimido[1,2-b]pyridazin-3-ylcarboxamido)acetamido]penicillanate (BB-P598) and sulbenicillin were determined by the serial twofold agar dilution method using Steers' apparatus on Mueller-Hinton agar plates against 31 test organisms for the primary screening (Table 1) and also against 61 strains of Pseudomonas aeruginosa for the secondary evaluation (Table 2).
# P. aeruginosa A9843 [4] = test: Effect of inoculum size on MIC, serial tube dilution (Nutrient Broth); assay type: cell-based; settings: for MIC ratio b/a: inoculum 5.3 × 10^5 / 5.3 × 10^4 cell/ml; for MIC ratio c/a: inoculum 5.3 × 10^6 / 5.3 × 10^4 cell/ml
# Method: (§5) The effect of inoculum size of the MIC and MBC (Minimum Bacteriacidal Concentration) of BB-P598 against P. aeruginosa A9843 also was determined. The MIC's were determined by the serial tube dilution method in Nutrient Broth using four levels of inoculum size (5.3×10^3, 5.3×10^4, 5.3×10^5 and 5.3×10^6 cells/ml), along with sulbenicillin as a reference standard.
# S. pyogenes = test: Tube dilution (Nutrient broth), S. pyogenes; assay type: cell-based; settings: Streptococcus pyogenes, Sp-3 S. pyogenes A9604, Table 3
# Method: (§6) The MIC's of BB-P598 against various organisms were also determined by the tube dilution method (Nutrient broth), and the results, compared with sulbenicillin, are shown in Table 3.
# D. pneumoniae = test: Tube dilution (Nutrient broth), D. pneumoniae; assay type: cell-based; settings: Streptococcus pneumoniae, Dp-4 D. pneumoniae A9585, Table 3
# Method: as §6
# P. morganii = test: Tube dilution (Nutrient broth), P. morganii; assay type: cell-based; settings: Morganella morganii
# Method: as §6
# S. enteritidis = test: Tube dilution (Nutrient broth), S. enteritidis; assay type: cell-based; settings: Salmonella enterica, Se-1 S. enteritidis A9531, Table 3
# Method: as §6
# P. aeruginosa A9843 [5] = test: Effect of inoculum size on MBC and MBC/MIC ratio; assay type: cell-based; settings: Table 5; for MBC: Pseudomonas aeruginosa, 99% killed
# Method: as §5
# Subsequent to the above MIC determinations, aliquots from the non-turbid tubes were added to Nutrient Agar plates to determine the MBC value. The MBC was assigned to the lowest concentration which killed 99% of the original cell population.
# E. cloacae = test: Tube dilution (Nutrient broth), E. cloacae; assay type: cell-based; settings: Enterobacter cloacae, El-1 E. cloacae A9656, Table 3
# Method: as §6
# S. aureus Smith [6] = test: In vivo activity in experimental infection in mice, S. aureus Smith; settings: single; for Survival/Tested: 100×LD50 challenge; for ED50: Staphylococcus aureus, sc, dose required to protect 50% of the infected mice, read-out: PD50
# Method: as §1, §2, §3
# S. aureus = test: Tube dilution (Nutrient broth), S. aureus; assay type: cell-based; settings: Staphylococcus aureus
# Method: as §6
# E. coli = test: Tube dilution (Nutrient broth), E. coli; assay type: cell-based; settings: Escherichia coli
# Method: as §6
# P. aeruginosa = test: Tube dilution (Nutrient broth), P. aeruginosa; assay type: cell-based; settings: Pseudomonas aeruginosa
# Method: as §6
# K. pneumoniae = test: Tube dilution (Nutrient broth), K. pneumoniae; assay type: cell-based; settings: Klebsiella pneumoniae
# S. marcescens = test: Tube dilution (Nutrient broth), S. marcescens; assay type: cell-based; settings: Serratia marcescens
# Method: as §6
# P. aeruginosa A9843 [7] = test: In vivo activity in experimental infection in mice, P. aeruginosa A9843; settings: single; for Survival/Tested: 100×LD50 challenge; for ED50: Pseudomonas aeruginosa, A9843, sc, dose required to protect 50% of the infected mice, read-out: PD50
# Method: as §1, §2, §3
# P. mirabilis = test: Tube dilution (Nutrient broth), P. mirabilis; assay type: cell-based; settings: Proteus mirabilis, Pm-2 P. mirabilis A9900, Table 3
# Method: as §6
# S. aureus Smith [8] = test: MIC of the infecting strain with the in vivo test, S. aureus Smith; assay type: cell-based; settings: Staphylococcus aureus, Table 7, read-out: MC
# [9] = system: S. aureus and the Gram-negative organisms except Pseudomonas; test: Agar dilution, activity against S. aureus and Gram-negative organisms except Pseudomonas; assay type: cell-based; settings: most of the 6 strains of S. aureus and 19 Gram-negative strains except Pseudomonas
# Method: as §4
# Pseudomonas aeruginosa = settings: prior art penicillins; cited from earlier work
# [10] = Pseudomonas aeruginosa, A9843, inoculum 5.3 × 10^4 cell/ml, Nutrient Broth, Table 4, read-out: MIC (a)
# [11] = Pseudomonas aeruginosa, A9843, inoculum 5.3 × 10^4 cell/ml, Table 5, read-out: MIC
# [12] = Pseudomonas aeruginosa, A9843, inoculum 5.3 × 10^6 cell/ml, Nutrient Broth, Table 4, read-out: MIC (c)
# [13] = A9843, inoculum 5.3 × 10^3 cell/ml
# [14] = A9843, inoculum 5.3 × 10^4 cell/ml
# [15] = Sa-2 S. aureus Smith +50% serum, Table 3
# [16] = Sa-11 S. aureus BX-1633 A9606, Table 3
# [17] = Sa-44 S. aureus A15097, Table 3
# [18] = Pa-13 P. aeruginosa A9843, Table 3
# [19] = Pa-19 P. aeruginosa A20229, Table 3
# [20] = Pa-57 P. aeruginosa A20546, Table 3
# [21] = Kp-3 K. pneumoniae A9977, Table 3
# [22] = Kp-4 K. pneumoniae A15130, Table 3
smiles,measurement,setting,value
"CC1(C)S[C@@H]2[C@H](NC(=O)[C@H](NC(=O)c3cnc4ccc(O)nn4c3=O)c3ccccc3)C(=O)N2[C@H]1C(=O)O [BB-P598, sodium 6-[D-(-)-α-phenyl-α-(7-hydroxy-4-oxo-4H-pyrimido[1,2-b]pyridazin-3-ylcarboxamido)acetamido]penicillanate]",Survival/Tested,E. coli Juhl [1]; 1.6 mg/kg sc,0/5
same,Survival/Tested,E. coli Juhl [1]; 6.3 mg/kg sc,1/5
same,Survival/Tested,E. coli Juhl [1]; 25 mg/kg sc,2/5
same,Survival/Tested,E. coli Juhl [1]; 100 mg/kg sc,3/5
same,ED50,E. coli Juhl [1],40 mg/kg
same,MIC,E. coli Juhl [2],25 µg/mL
same,MIC,P. aeruginosa A9843 [3],6.3 µg/mL
same,mean % relative activity to sulbenicillin,Pseudomonas; 6 strains of Pseudomonas in Table 1,713%
same,activity relative to sulbenicillin (in words),Pseudomonas; Pseudomonas,significantly more active than sulbenicillin
same,MIC,"P. aeruginosa A9843 [4]; Pseudomonas aeruginosa, A9843, inoculum 5.3 × 10^3 cell/ml, Nutrient Broth, Table 4, read-out: MIC",6.3 µg/mL
same,MIC,"P. aeruginosa A9843 [4]; Pseudomonas aeruginosa, A9843, inoculum 5.3 × 10^3 cell/ml, Table 5, read-out: MIC",6.3 µg/mL
same,MIC,P. aeruginosa A9843 [4]; [10],12.5 µg/mL
same,MIC,P. aeruginosa A9843 [4]; [11],12.5 µg/mL
same,MIC,"P. aeruginosa A9843 [4]; Pseudomonas aeruginosa, A9843, inoculum 5.3 × 10^5 cell/ml, Nutrient Broth, Table 4, read-out: MIC (b)",≤ 25 µg/mL
same,MIC,P. aeruginosa A9843 [4]; [12],> 100 µg/mL
same,MIC ratio b/a,P. aeruginosa A9843 [4]; Table 4,2
same,MIC ratio c/a,P. aeruginosa A9843 [4]; Table 4,> 8
same,MIC,S. pyogenes,0.08 µg/mL
same,MIC,D. pneumoniae,0.01 µg/mL
same,MIC,"P. morganii; Pg-8 P. morganii A15153, Nutrient broth, Table 3, read-out: MIC",> 100 µg/mL
same,MIC,S. enteritidis,3.1 µg/mL
same,MBC,P. aeruginosa A9843 [5]; [13],50 µg/mL
same,MBC,P. aeruginosa A9843 [5]; [14],> 100 µg/mL
same,MBC/MIC,P. aeruginosa A9843 [5]; inoculum 5.3 × 10^3 cell/ml,8
same,MBC/MIC,P. aeruginosa A9843 [5]; inoculum 5.3 × 10^4 cell/ml,> 8
same,MIC,E. cloacae,100 µg/mL
same,Survival/Tested,S. aureus Smith [6]; 1.6 mg/kg sc,0/5
same,Survival/Tested,S. aureus Smith [6]; 6.3 mg/kg sc,5/5
same,Survival/Tested,S. aureus Smith [6]; 25 mg/kg sc,5/5
same,Survival/Tested,S. aureus Smith [6]; 100 mg/kg sc,5/5
same,ED50,S. aureus Smith [6],3.1 mg/kg
same,MIC,S. aureus; [15],1.6 µg/mL
same,MIC,S. aureus; [16],50 µg/mL
same,MIC,S. aureus; [17],100 µg/mL
same,MIC,"E. coli; Ec-1 E. coli NIHJ, Table 3",6.3 µg/mL
same,MIC,"E. coli; Ec-58 E. coli A9675, Table 3",50 µg/mL
same,MIC,P. aeruginosa; [18],6.3 µg/mL
same,MIC,P. aeruginosa; [19],6.3 µg/mL
same,MIC,P. aeruginosa; [20],3.1 µg/mL
same,MIC,K. pneumoniae; [21],12.5 µg/mL
same,MIC,K. pneumoniae; [22],> 100 µg/mL
same,MIC,"S. marcescens; Sm-1 S. marcescens A20019, Nutrient broth, Table 3, read-out: MIC",50 µg/mL
same,Survival/Tested,P. aeruginosa A9843 [7]; 1.6 mg/kg sc,0/5
same,Survival/Tested,P. aeruginosa A9843 [7]; 6.3 mg/kg sc,1/5
same,Survival/Tested,P. aeruginosa A9843 [7]; 25 mg/kg sc,1/5
same,Survival/Tested,P. aeruginosa A9843 [7]; 100 mg/kg sc,3/5
same,ED50,P. aeruginosa A9843 [7],54 mg/kg
same,MIC,P. mirabilis,6.3 µg/mL
same,MIC,S. aureus Smith [8],3.1 µg/mL
same,activity relative to sulbenicillin (in words),[9],equal to or less active than sulbenicillin
"CC1(C)S[C@@H]2[C@H](NC(=O)C(C(=O)O)c3ccccc3)C(=O)N2[C@H]1C(=O)O (stereo partly drawn) [Carbenicillin, reference compound]",potency against Pseudomonas aeruginosa (in words),Pseudomonas aeruginosa,only a relatively low potency
"CC1(C)S[C@@H]2[C@H](NC(=O)C(c3ccccc3)S(=O)(=O)O)C(=O)N2[C@H]1C(=O)O (stereo partly drawn) [Sulbenicillin, reference compound]",Survival/Tested,E. coli Juhl [1]; 1.6 mg/kg sc,0/5
same,Survival/Tested,E. coli Juhl [1]; 6.3 mg/kg sc,1/5
same,Survival/Tested,E. coli Juhl [1]; 25 mg/kg sc,5/5
same,Survival/Tested,E. coli Juhl [1]; 100 mg/kg sc,5/5
same,ED50,E. coli Juhl [1],9.5 mg/kg
same,MIC,E. coli Juhl [2],25 µg/mL
same,MIC,P. aeruginosa A9843 [3],25 µg/mL
same,MIC,P. aeruginosa A9843 [4]; [10],50 µg/mL
same,MIC,P. aeruginosa A9843 [4]; [11],50 µg/mL
same,MIC,P. aeruginosa A9843 [4]; [12],> 400 µg/mL
same,MIC,"P. aeruginosa A9843 [4]; inoculum 5.3 × 10^3 cell/ml, Table 5",25 µg/mL
same,MIC ratio b/a,P. aeruginosa A9843 [4]; Table 4,4
same,MIC ratio c/a,P. aeruginosa A9843 [4]; Table 4,> 8
same,MIC,S. pyogenes,0.31 µg/mL
same,MIC,D. pneumoniae,0.08 µg/mL
same,MIC,P. morganii,12.5 µg/mL
same,MIC,S. enteritidis,1.6 µg/mL
same,MBC,P. aeruginosa A9843 [5]; [13],100 µg/mL
same,MBC,P. aeruginosa A9843 [5]; [14],200 µg/mL
same,MBC/MIC,P. aeruginosa A9843 [5]; inoculum 5.3 × 10^3 cell/ml,4
same,MBC/MIC,P. aeruginosa A9843 [5]; inoculum 5.3 × 10^4 cell/ml,4
same,MIC,E. cloacae,50 µg/mL
same,Survival/Tested,S. aureus Smith [6]; 0.4 mg/kg sc,0/5
same,Survival/Tested,S. aureus Smith [6]; 1.6 mg/kg sc,0/5
same,Survival/Tested,S. aureus Smith [6]; 6.3 mg/kg sc,5/5
same,Survival/Tested,S. aureus Smith [6]; 25 mg/kg sc,5/5
same,ED50,S. aureus Smith [6],3.1 mg/kg
same,MIC,S. aureus; [15],3.1 µg/mL
same,MIC,"S. aureus; Sa-2 S. aureus Smith A9537, Table 3",3.1 µg/mL
same,MIC,S. aureus; [16],12.5 µg/mL
same,MIC,S. aureus; [17],25 µg/mL
same,MIC,"E. coli; Ec-1 E. coli NIHJ, Table 3",6.3 µg/mL
same,MIC,"E. coli; Ec-58 E. coli A9675, Table 3",100 µg/mL
same,MIC,P. aeruginosa; [18],25 µg/mL
same,MIC,P. aeruginosa; [19],> 100 µg/mL
same,MIC,P. aeruginosa; [20],25 µg/mL
same,MIC,K. pneumoniae; [21],6.3 µg/mL
same,MIC,K. pneumoniae; [22],> 100 µg/mL
same,MIC,S. marcescens,25 µg/mL
same,Survival/Tested,P. aeruginosa A9843 [7]; 1.6 mg/kg sc,0/5
same,Survival/Tested,P. aeruginosa A9843 [7]; 6.3 mg/kg sc,0/5
same,Survival/Tested,P. aeruginosa A9843 [7]; 25 mg/kg sc,0/5
same,Survival/Tested,P. aeruginosa A9843 [7]; 100 mg/kg sc,2/5
same,Survival/Tested,P. aeruginosa A9843 [7]; 400 mg/kg sc,4/5
same,ED50,P. aeruginosa A9843 [7],140 mg/kg
same,MIC,P. mirabilis,0.8 µg/mL
same,potency against Pseudomonas aeruginosa (in words),Pseudomonas aeruginosa,only a relatively low potency
same,MIC,S. aureus Smith [8],6.3 µg/mL
